The melting point is the temperature, or range, at which the solid turns liquid.

Compound `CN1CCN(S(=O)(=O)c2ccc(C#Cc3cnn4c(C(F)F)cc(-c5cccc(C(F)(F)F)c5)nc34)s2)CC1` [Example 248, 7-Difluoromethyl-3-[5-(4-methyl-piperazine-1-sulfonyl)-thiophen-2-ylethynyl]-5-(3-trifluoromethyl-phenyl)-pyrazolo[1,5-a]pyrimidine] showed a melting point of 214 °C.
For `Nc1ncc(C#Cc2ncn3c(C(F)(F)F)cc(-c4ccc(C(F)(F)F)cc4)nc23)cn1` [Example 285, 5-[4-Trifluoromethyl-2-(4-trifluoromethyl-phenyl)-imidazo[1,5-a]pyrimidin-8-ylethynyl]-pyrimidin-2-ylamine], the melting point amounted to 294 °C.
With `NC(=O)c1cncc(C#Cc2cnn3c(C(F)(F)F)cc(-c4ccc(C(F)(F)F)cc4)nc23)c1` [Example 15, 5-[7-Trifluoromethyl-5-(4-trifluoromethyl-phenyl)-pyrazolo[1,5-a]pyrimidin-3-ylethynyl]-nicotinamide], the melting point fell in the range of 285 to 287 °C.
Turning to `Nc1ncc(C#Cc2cnn3c(C(F)F)cc(-c4ccc(C(F)(F)F)cc4)nc23)cn1` [Example 213, 5-[7-Difluoromethyl-5-(4-trifluoromethyl-phenyl)-pyrazolo[1,5-a]pyrimidin-3-ylethynyl]-pyrimidin-2-ylamine], the melting point is 242 to 243 °C.
With `COc1ncc(S(=O)(=O)NC(C)(CO)CO)cc1C#Cc1cnn2c(C(F)(F)F)cc(-c3ccc(C(F)(F)F)cc3)nc12` [Example 25, 6-Methoxy-5-[7-trifluoromethyl-5-(4-trifluoromethyl-phenyl)-pyrazolo[1,5-a]pyrimidin-3-ylethynyl]-pyridine-3-sulfonic acid (2-hydroxy-1-hydroxymethyl-1-methyl-ethyl)-amide], the melting point lay in the range of 233 to 235 °C.
Regarding `NS(=O)(=O)c1ccc(C#Cc2cnn3c(C(F)F)cc(-c4ccc(C(F)(F)F)cc4)nc23)s1` [Example 164, 5-[7-Difluoromethyl-5-(4-trifluoromethyl-phenyl)-pyrazolo[1,5-a]pyrimidin-3-ylethynyl]-thiophene-2-sulfonic acid amide], the melting point came out at 210 °C.
Take `NS(=O)(=O)c1cc(C#Cc2cnn3c(C(F)(F)F)cc(-c4ccc(C(F)(F)F)cc4)nc23)ccc1F` [Example 50, 2-Fluoro-5-[7-trifluoromethyl-5-(4-trifluoromethyl-phenyl)-pyrazolo[1,5-a]pyrimidin-3-ylethynyl]-benzenesulfonamide]: the melting point was in the range of 254 to 255 °C.
`NS(=O)(=O)c1ccc(C#Cc2cnc3ccc(-c4ccc(C(F)(F)F)cc4)cn23)s1` [Example 217, 5-[6-(4-Trifluoromethyl-phenyl)-imidazo[1,2-a]pyridin-3-ylethynyl]-thiophene-2-sulfonic acid amide] displayed a melting point of 206 to 210 °C.
`NS(=O)(=O)c1ccc(C#Cc2cnn3c(C(F)F)cc(-c4ccc(C(F)(F)F)cc4)nc23)cc1` [Example 49, 4-[7-Difluoromethyl-5-(4-trifluoromethyl-phenyl)-pyrazolo[1,5-a]pyrimidin-3-ylethynyl]-benzenesulfonamide] showed a melting point of 254 °C.
`COCCNS(=O)(=O)c1ccc(C#Cc2cnn3c(C(F)F)cc(-c4ccc(C(F)(F)F)cc4)nc23)cc1` [Example 139, 4-[7-Difluoromethyl-5-(4-trifluoromethyl-phenyl)-pyrazolo[1,5-a]pyrimidin-3-ylethynyl]-N-(2-methoxy-ethyl)-benzenesulfonamide] displayed a melting point of 184 to 186 °C.
`CC(C)(CO)NS(=O)(=O)c1cccc(C#Cc2cnn3c(C4CC4)cc(-c4ccc(Cl)cc4)nc23)c1` [Example 65, 3-[5-(4-Chloro-phenyl)-7-cyclopropyl-pyrazolo[1,5-a]pyrimidin-3-ylethynyl]-N-(2-hydroxy-1,1-dimethyl-ethyl)-benzenesulfonamide]: the melting point was 202 to 204 °C.
For the compound `CN(C)CCNS(=O)(=O)c1ccc(C#Cc2cnn3c(C(F)F)cc(-c4cccc(C(F)(F)F)c4)nc23)s1` [Example 250, 5-[7-Difluoromethyl-5-(3-trifluoromethyl-phenyl)-pyrazolo[1,5-a]pyrimidin-3-ylethynyl]-thiophene-2-sulfonic acid (2-dimethylamino-ethyl)-amide], the melting point was determined as 170 °C.
Compound `CNS(=O)(=O)c1ccc(C#Cc2cnn3c(C(F)F)cc(-c4ccc(C(F)(F)F)cc4)nc23)cc1` [Example 138, 4-[7-difluoromethyl-5-(4-trifluoromethyl-phenyl)-pyrazolo[1,5-a]pyrimidin-3-ylethynyl]-N-methyl-benzenesulfonamide] registered a melting point of 202 to 203 °C.
In turn, `Fc1ccc(C#Cc2cnn3c(C(F)(F)F)cc(-c4ccc(C(F)(F)F)cc4)nc23)cn1` [Example 149, 3-(6-Fluoro-pyridin-3-ylethynyl)-7-trifluoromethyl-5-(4-trifluoromethyl-phenyl)-pyrazolo[1,5-a]pyrimidine] displayed a melting point of 213 to 216 °C.
`CS(=O)(=O)Nc1ccc(C#Cc2cnn3c(C(F)(F)F)cc(-c4ccc(C(F)(F)F)cc4)nc23)cn1` [Example 216, N-{5-[7-Trifluoromethyl-5-(4-trifluoromethyl-phenyl)-pyrazolo[1,5-a]pyrimidin-3-ylethynyl]-pyridin-2-yl}-methanesulfonamide]: the melting point lay in the range of 261 to 263 °C.
`Nc1ccc(C#Cc2cnn3c(C4CC4)cc(-c4ccc(C(F)(F)F)cc4)nc23)cn1` [Example 293, 5-[7-Cyclopropyl-5-(4-trifluoromethyl-phenyl)-pyrazolo[1,5-a]pyrimidin-3-ylethynyl]-pyridin-2-ylamine] returned a melting point of 228 to 231 °C.
Take `CS(=O)(=O)c1cncc(C#Cc2cnn3c(C(F)(F)F)cc(-c4ccc(C(F)(F)F)cc4)nc23)c1` [Example 38, 3-(5-Methanesulfonyl-pyridin-3-ylethynyl)-7-trifluoromethyl-5-(4-trifluoromethyl-phenyl)-pyrazolo[1,5-a]pyrimidine]: the melting point is 241 to 242 °C.
`O=S(=O)(Nc1cccnc1)c1ccc(C#Cc2cnn3c(C(F)F)cc(-c4ccc(C(F)(F)F)cc4)nc23)s1` [Example 281, 5-[7-Difluoromethyl-5-(4-trifluoromethyl-phenyl)-pyrazolo[1,5-a]pyrimidin-3-ylethynyl]-thiophene-2-sulfonic acid pyridin-3-ylamide] gave a melting point of 226 °C.
Next, `Cc1cc(-c2cc(C(F)(F)F)n3ncc(C#Cc4ccc(S(N)(=O)=O)cc4)c3n2)ccc1Cl` [Example 110, 4-[5-(4-Chloro-3-methyl-phenyl)-7-trifluoromethyl-pyrazolo[1,5-a]pyrimidin-3-ylethynyl]-benzenesulfonamide]: 275 °C; `N#Cc1cc(-c2ccc(C(F)(F)F)cc2)cn2c(C#Cc3cnc(N)nc3)cnc12` [Example 227, 3-(2-Amino-pyrimidin-5-ylethynyl)-6-(4-trifluoromethyl-phenyl)-imidazo[1,2-a]pyridine-8-carbonitrile]: 290 °C; `NS(=O)(=O)c1cc(C#Cc2cnn3c(C(F)(F)F)cc(-c4ccc(Cl)cc4)nc23)c(F)cc1F` [Example 96, 5-[5-(4-Chloro-phenyl)-7-trifluoromethyl-pyrazolo[1,5-a]pyrimidin-3-ylethynyl]-2,4-difluoro-benzenesulfonamide]: 292 to 293 °C.
Next, `Cc1cc(-c2ccc(Cl)cc2)nc2c(C#Cc3ccc(C(C)(C)O)cc3)cnn12` [Example 301, 2-{4-[5-(4-Chloro-phenyl)-7-methyl-pyrazolo[1,5-a]pyrimidin-3-ylethynyl]-phenyl}-propan-2-ol]: 112 to 115 °C; `Cc1nc(N)ccc1C#Cc1cnn2c(C(F)F)cc(-c3ccc(C(F)(F)F)cc3)nc12` [Example 143, 5-[7-Difluoromethyl-5-(4-trifluoromethyl-phenyl)-pyrazolo[1,5-a]pyrimidin-3-ylethynyl]-6-methyl-pyridin-2-ylamine]: 243 to 246 °C; `NS(=O)(=O)c1cccc(C#Cc2cnn3c(C4CC4)cc(-c4ccc(C(F)(F)F)cc4)nc23)c1` [Example 84, 3-[7-Cyclopropyl-5-(4-trifluoromethyl-phenyl)-pyrazolo[1,5-a]pyrimidin-3-ylethynyl]-benzenesulfonamide]: 262 to 264 °C.
Compound `Cc1cc(-c2cc(C(F)F)n3ncc(C#Cc4ccc(S(=O)(=O)NC(C)(C)C)s4)c3n2)ccc1Cl` [Example 171, 5-[5-(4-Chloro-3-methyl-phenyl)-7-difluoromethyl-pyrazolo[1,5-a]pyrimidin-3-ylethynyl]-thiophene-2-sulfonic acid tert-butylamide] showed a melting point of 220 °C.
In the case of `Nc1cnc(C#Cc2cnn3c(C(F)F)cc(-c4ccc(C(F)(F)F)cc4)nc23)cn1` [Example 287, 5-[7-Difluoromethyl-5-(4-trifluoromethyl-phenyl)-pyrazolo[1,5-a]pyrimidin-3-ylethynyl]-pyrazin-2-ylamine], the melting point came to 233 °C.
The compound `COc1ncc(S(=O)(=O)NC(C)(C)CO)cc1C#Cc1cnn2c(C(F)(F)F)cc(-c3ccc(C(F)(F)F)cc3)nc12` [Example 18, 6-Methoxy-5-[7-trifluoromethyl-5-(4-trifluoromethyl-phenyl)-pyrazolo[1,5-a]pyrimidin-3-ylethynyl]-pyridine-3-sulfonic acid (2-hydroxy-1,1-dimethyl-ethyl)-amide] yielded a melting point of 209 to 210 °C.
The compound `Cc1cc(-c2ccc(C(F)(F)F)cc2)cn2c(C#Cc3ccc(N)nc3)cnc12` [Example 209, 5-[8-Methyl-6-(4-trifluoromethyl-phenyl)-imidazo[1,2-a]pyridin-3-ylethynyl]-pyridin-2-ylamine] displayed a melting point of 239 to 240 °C.
For `CC(=O)Nc1ccc(C#Cc2cnn3c(C(F)(F)F)cc(-c4ccc(C(F)(F)F)cc4)nc23)cn1` [Example 225, N-{5-[7-Trifluoromethyl-5-(4-trifluoromethyl-phenyl)-pyrazolo[1,5-a]pyrimidin-3-ylethynyl]-pyridin-2-yl}-acetamide], the melting point was 266 °C.
In turn, `OCc1cccc(C#Cc2cnn3c(C(F)(F)F)cc(-c4ccc(C(F)(F)F)cc4)nc23)c1` [Example 204, {3-[7-Trifluoromethyl-5-(4-trifluoromethyl-phenyl)-pyrazolo[1,5-a]pyrimidin-3-ylethynyl]-phenyl}-methanol] returned a melting point of 177 °C.

These data come from patent US8063048B2, “Acetylenyl-pyrazolo-pyrimidine derivatives” (Hoffmann-La Roche Inc., priority 2005, dated 2011).
